{"source": "patent US20240366616A1", "about": "“SOLUBLE PHARMACEUTICAL COMPOSITIONS COMPRISING SALTS OF DISUBSTITUTED 1, 2, 4-TRIAZINE COMPOUND” (Mineralys Therapeutics, Inc., priority 2021, published 2024)", "assay_type_in_all_cases": "physicochemical", "key": {"[1]": {"experiment": "Stability test of 10% API capsules: purity test (related substances)", "conditions": "Initial", "experimental": "Metal salt-free excipients were selected.\nD-Mannitol and talc were mixed and sieved. The API was added to the sieved mixture, blended, sieved, and filled in HPMC capsules."}, "[2]": {"experiment": "Study II of tablets: purity test (related substances) after storage", "conditions": "Initial", "text": "API granules, a disintegrant, and lubricants were mixed in a polyethylene bag. After confirming pressure dependency, the mixture was subjected to sequential tableting (900 kilogram of force, i.e. about 8826 Newtons)."}, "[3]": {"experiment": "Dissolution test of ALDSI (JP Paddle Method, JP Second Fluid) and XRPD after storage or processing of API alone", "experimental": "Storage conditions: 25° C./60% RH, 40° C./75% RH, and 60° C./75% RH (relative humidity) in an open container\nSampling time points: 3 days and 1 week\nTest method: JP Apparatus for Paddle Method (Apparatus 2)\nRevolutions: 50 rpm for 0-30 min, and 250 rpm for 30 min.\nDissolution medium: JP Second Fluid for dissolution test (A mixture of phosphate buffer solution (pH 6.8) and water (1:1), as described in the Japanese Pharmacopoeia.)"}, "[4]": {"experiment": "Powder x-ray diffraction of ALDSI stored with a metal salt (croscarmellose Na)", "conditions": "3 days storage with croscarmellose Na, 60° C./75% RH", "experimental": "FIG. 1: Powder x-ray diffraction peaks detected from MLS-101 after 3 days of storage with a metal salt (croscarmellose Na) (storage conditions: 60° C./75% RH).\nALDSI-derived peaks were detected after 3 days of storage of ALDSI with a metal salt (croscarmellose Na). (storage conditions: 60° C./75% RH)"}, "[5]": {"experiment": "Water solubility of API free base"}}, "data": [{"smiles": "CC(=O)N[C@H]1CC[C@H](NC(=O)CN2CCN(c3nncc(-c4ccc(C)cc4)n3)CC2)CC1", "note": "[ALDSI]", "values": [{"measurement": "Individual related substances RRT 0.95", "setting": "[1]", "value": 0.10, "unit": "%"}, {"measurement": "Individual related substances RRT 0.96", "setting": "[1]", "value": 0.04, "unit": "%"}, {"measurement": "Individual related substances RRT 0.98", "setting": "[1]", "value": 0.11, "unit": "%"}, {"measurement": "Individual related substances RRT 1.18", "setting": "[1]", "value": 0.47, "unit": "%"}, {"measurement": "Individual related substances RRT 1.19", "setting": "[1]", "value": 0.03, "unit": "%"}, {"measurement": "Total related substances", "setting": "[1]", "value": 0.75, "unit": "%"}, {"measurement": "Individual related substances RRT 0.81", "setting": "[2]", "value": 0.11, "unit": "%"}, {"measurement": "Individual related substances RRT 0.85", "setting": "[2]", "value": 0.02, "unit": "%"}, {"measurement": "Individual related substances RRT 1.09", "setting": "[2]", "value": 0.02, "unit": "%"}, {"measurement": "Individual related substances RRT 1.13", "setting": "[2]", "value": 0.02, "unit": "%"}, {"measurement": "Individual related substances RRT 1.35", "setting": "[2]", "value": 0.02, "unit": "%"}, {"measurement": "Individual related substances RRT 1.43", "setting": "[2]", "value": 0.02, "unit": "%"}, {"measurement": "Individual related substances RRT 1.69", "setting": "[2]", "value": 0.02, "unit": "%"}, {"measurement": "Total related substances", "setting": "[2]", "value": 0.23, "unit": "%"}, {"measurement": "Dissolution differences among samples", "setting": "[3]; API alone compressed at 300, 600, and 900 kilograms of force", "value": "no differences in dissolution among samples"}, {"measurement": "Dissolution differences among samples", "setting": "[3]; API alone ground for 1, 3, 20, and 30 min", "value": "no differences in dissolution among samples"}, {"measurement": "Dissolution differences among samples", "setting": "[3]; API alone kneaded with large, middle, and small amounts of water", "value": "no differences in dissolution among samples"}, {"measurement": "Dissolution delay / new XRPD peaks after storage", "setting": "[3]; API alone, 25° C./60% RH, 40° C./75% RH, 60° C./75% RH open container, 3 days and 1 week", "value": "no delay of dissolution or appearance of new peaks on XRPD"}, {"measurement": "Dissolution changes over time", "setting": "[3]; compressed API alone stored at 60° C./75% RH for 3 days or 1 week", "value": "no changes in dissolution over time"}, {"measurement": "Dissolution changes over time", "setting": "[3]; ground API alone stored at 60° C./75% RH for 3 days or 1 week", "value": "no changes in dissolution over time"}, {"measurement": "Propensity toward disproportionation in the presence of a metal salt", "setting": "[4]", "value": "high propensity toward disproportionation"}]}, {"smiles": "CC(=O)N[C@H]1CC[C@H](NC(=O)CN2CCN(c3nncc(-c4ccc(C)cc4)n3)CC2)CC1", "note": "[API free base]", "values": [{"measurement": "Solubility in water", "setting": "[5]", "value": "poorly soluble in water"}]}]}
